From patent publication US12187686B2, “BRD4-JAK2 inhibitors” (H. LEE MOFFITT CANCER CENTER AND RESEARCH INSTITUTE, INC., priority 2018, dated 2025)
Like-named read-outs stand apart in the source and are kept apart here. One block for each compound: values may come before it.

Experiments:
UKE1 cells = assay: Growth inhibition of UKE1 cells; format: cell-based
BRD4 [1] = target: T1, BRD4 (Homo sapiens, UniProt O60885); assay: Differential Scanning Fluorimetry (DSF), increased stability of BRD4 upon ligand binding; details: for ΔTm at 4 µM: 100 μM protein, 4 μM compound and 2% DMSO; for BRD4 DSF (ΔTm): Table 3
Method: DSF=Differential Scanning Fluorimetry; provides a measure of the increased stability of BRD4 upon ligand binding The DSF experiment was run at 100 μM protein, 4 μM compound and 2% DMSO.

MM1.S cells = assay: Antiproliferative activity in MM1.S cells (sensitive for BRD4 inhibition); format: cell-based; details: Homo sapiens; for EC50: MM1.S cells (sensitive for BRD4 inhibition); for GI50 / IC50: MM1.S; for GI50: Table 3, read-out: GI50 (MM1S)
Method: Cellular activity of promising compounds is assessed using MM.1S and MV4-11 AML cells using c-Myc levels as biomarker (6-12 hr treatment) and antiproliferative activity (48-72 hr treatment) as described (Ciceri et al., Dual kinase-bromodomain inhibitors for rationally designed polypharmacology. Nat Chem Biol 2014).

c-Myc = details: MM.1S cells; background, literature; cited from earlier work
JAK2 = JAK2 (Homo sapiens, UniProt O60674); assay: JAK2 inhibition (IC50); format: biochemical
Sequence of JAK2 (O60674 whole entry): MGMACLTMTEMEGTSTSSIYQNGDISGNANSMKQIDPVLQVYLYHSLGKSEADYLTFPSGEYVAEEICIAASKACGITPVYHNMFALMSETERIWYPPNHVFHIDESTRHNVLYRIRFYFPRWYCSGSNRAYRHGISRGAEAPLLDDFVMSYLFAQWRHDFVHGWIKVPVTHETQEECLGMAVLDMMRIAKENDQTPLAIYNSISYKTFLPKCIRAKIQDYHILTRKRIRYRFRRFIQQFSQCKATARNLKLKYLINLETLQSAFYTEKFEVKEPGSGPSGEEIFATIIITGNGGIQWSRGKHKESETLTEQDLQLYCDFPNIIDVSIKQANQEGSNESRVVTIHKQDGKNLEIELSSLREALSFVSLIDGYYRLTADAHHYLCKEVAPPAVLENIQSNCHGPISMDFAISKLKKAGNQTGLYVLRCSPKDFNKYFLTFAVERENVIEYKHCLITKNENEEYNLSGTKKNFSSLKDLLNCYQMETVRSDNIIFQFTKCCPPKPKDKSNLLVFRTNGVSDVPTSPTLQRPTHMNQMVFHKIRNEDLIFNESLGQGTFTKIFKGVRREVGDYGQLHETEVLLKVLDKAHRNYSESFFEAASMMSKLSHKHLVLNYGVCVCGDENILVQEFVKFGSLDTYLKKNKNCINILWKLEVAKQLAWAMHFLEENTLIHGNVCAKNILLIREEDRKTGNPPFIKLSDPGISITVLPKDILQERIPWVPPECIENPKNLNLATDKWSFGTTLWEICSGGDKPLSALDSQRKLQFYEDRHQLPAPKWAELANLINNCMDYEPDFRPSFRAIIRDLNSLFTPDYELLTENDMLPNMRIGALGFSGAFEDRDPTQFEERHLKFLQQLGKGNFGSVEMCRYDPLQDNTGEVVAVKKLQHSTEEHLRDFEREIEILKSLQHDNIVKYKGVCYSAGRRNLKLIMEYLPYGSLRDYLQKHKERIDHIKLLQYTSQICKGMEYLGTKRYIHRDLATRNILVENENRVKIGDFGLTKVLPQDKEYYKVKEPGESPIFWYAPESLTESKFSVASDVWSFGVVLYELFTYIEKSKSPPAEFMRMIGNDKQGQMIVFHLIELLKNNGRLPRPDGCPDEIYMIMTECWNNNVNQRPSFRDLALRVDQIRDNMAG

BRD4 [2] = target: T1, BRD4; assay: BRD4 inhibition (IC50); format: binding; set-up: BRD4-1
Mouse microsome = format: in vitro ADME; details: Table 1
MV4-11 AML cells = details: background, literature; read-out: IC50, proliferation of MV4-11 AML cells; cited from earlier work
[3] = Table 2, read-out: GI50 (UKE1 cells)
[4] = Table 1, read-out: GI50 (UKE1 cells)
[5] = Table 1, estimated, read-out: Estimated BRD4-1 IC50 (BRD4)

- ΔTm at 4 µM (BRD4 [1]; Table 2): 6.9 °C
- EC50 (MM1.S cells; Table 2): 3120 nM
Compound: Cc1cnc(Nc2ccc(N3CCN(C)CC3)c(F)c2)cc1Nc1ccc(Cl)c(NS(=O)(=O)C(C)(C)C)c1
- GI50 (UKE1 cells; [3]): 4500 nM

- ΔTm at 4 µM (BRD4 [1]; Table 2): 6.6 °C
- EC50 (MM1.S cells; Table 2): 2830 nM
Compound: Cc1cnc(Nc2cc(F)c(N3CCN(C)CC3)c(F)c2)cc1Nc1ccc(Cl)c(NS(=O)(=O)C(C)(C)C)c1
- GI50 (UKE1 cells; [3]): 5700 nM

Compound: CC[C@@H]1C(=O)N(C)c2cnc(Nc3ccc(C(=O)NC4CCN(C)CC4)cc3OC)nc2N1C1CCCC1 [BI2536]
- downregulation of c-Myc (c-Myc): strong downregulation

- IC50 (JAK2; Table 1, read-out: IC50 (JAK2)): 9 nM
- IC50 (JAK2; Table 3, read-out: JAK2 (IC50)): 8 nM
- IC50 (BRD4 [2]; [5]): 5610 nM
- IC50 (BRD4 [2]; Table 3, read-out: BRD4 (IC50)): 5600 nM
- ΔTm at 4 µM (BRD4 [1]; Table 1): 8.4 °C
- BRD4 DSF (ΔTm) (BRD4 [1]): 8.4 °C
- GI50 (MM1.S cells): 710 nM
- EC50 (MM1.S cells; Table 1): 710 nM
Compound: Cc1cnc(Nc2ccc(N3CCN(C)CC3)c(F)c2)nc1Nc1cccc(CS(=O)(=O)C(C)(C)C)c1 [SR3-159, N^4-(3-((tert-Butylsulfonyl)methyl)phenyl)-N^2-(3-fluoro-4-(4-methylpiperazin-1-yl)phenyl)-5-methylpyrimidine-2,4-diamine]
- GI50 (UKE1 cells; [4]): 440 nM
- GI50 (UKE1 cells; Table 3, read-out: GI50 (UKE1)): 440 nM

- IC50 (JAK2; Table 3, read-out: JAK2 (IC50)): 2.2 nM
- ΔTm at 4 µM (BRD4 [1]; Table 1): 6.9 °C
- BRD4 DSF (ΔTm) (BRD4 [1]): 6.9 °C
- IC50 (MM1.S cells; Table 1): 130 nM
- GI50 (MM1.S cells): 130 nM
Compound: Cc1cnc(Nc2ccc(C(=O)NC3CCN(C)CC3)c(F)c2)nc1Nc1cccc(CS(=O)(=O)C(C)(C)C)c1 [SR3-162, 4-((4-((3-((tert-Butylsulfonyl)methyl)phenyl)amino)-5-methylpyrimidin-2-yl)amino)-2-fluoro-N-(1-methylpiperidin-4-yl)benzamide]

- IC50 (JAK2; Table 1, unit given as nm, read-out: IC50 (JAK2)): 0.87 nM
- IC50 (JAK2; Table 3, read-out: JAK2 (IC50)): 1 nM
- IC50 (BRD4 [2]; [5]): 704 nM
- IC50 (BRD4 [2]; Table 3, read-out: BRD4 (IC50)): 700 nM
- ΔTm at 4 µM (BRD4 [1]; Table 1): 9.2 °C
- BRD4 DSF (ΔTm) (BRD4 [1]): 9.2 °C
- IC50 (MM1.S cells; Table 1): 140 nM
- GI50 (MM1.S cells): 140 nM
- Mouse microsome (Mouse microsome): 28%
Compound: Cc1cnc(Nc2ccc(C3CCN(C)CC3)c(F)c2)nc1Nc1cccc(CS(=O)(=O)C(C)(C)C)c1 [SR3-167, N^4-(3-((tert-Butylsulfonyl)methyl)phenyl)-N^2-(3-fluoro-4-(1-methylpiperidin-4-yl)phenyl)-5-methylpyrimidine-2,4-diamine]
- GI50 (UKE1 cells; [4]): 210 nM
- GI50 (UKE1 cells; Table 3, read-out: GI50 (UKE1)): 210 nM

- IC50 (JAK2; Table 3, read-out: JAK2 (IC50)): 4.2 nM
- IC50 (BRD4 [2]; Table 3, read-out: BRD4 (IC50)): 700 nM
- ΔTm at 4 µM (BRD4 [1]; Table 1): 9.8 °C
- BRD4 DSF (ΔTm) (BRD4 [1]): 9.8 °C
- IC50 (MM1.S cells; Table 1): 320 nM
- GI50 (MM1.S cells): 320 nM
- Mouse microsome (Mouse microsome): 22%
Compound: Cc1cnc(Nc2ccc(C3CCN(C)CC3)c(F)c2)nc1Nc1ccc(Cl)c(CS(=O)(=O)C(C)(C)C)c1 [SR3-169, N^4-(3-((tert-Butylsulfonyl)methyl)-4-chlorophenyl)-N^2-(3-fluoro-4-(1-methylpiperidin-4-yl)phenyl)-5-methylpyrimidine-2,4-diamine]
- GI50 (UKE1 cells; [4]): 400 nM
- GI50 (UKE1 cells; Table 3, read-out: GI50 (UKE1)): 400 nM

- BRD4 DSF (ΔTm) (BRD4 [1]): 8.7 °C
- GI50 (MM1.S cells): 850 nM
Compound: Cc1cnc(Nc2ccc(C3CCN(C)CC3)c(F)c2)nc1Nc1ccc2c(c1)C(S(=O)(=O)C(C)(C)C)CC2 (stereo not shown) [SR5-156, N^4-(3-(tert-Butylsulfonyl)-2,3-dihydro-1H-inden-5-yl)-N^2-(3-fluoro-4-(1-methylpiperidin-4-yl)phenyl)-5-methylpyrimidine-2,4-diamine]
- GI50 (UKE1 cells; Table 3, read-out: GI50 (UKE1)): 1440 nM

- GI50 (MM1.S cells): 700 nM
Compound: Cc1cnc(Nc2cc(F)c(C3CCN(C)CC3)c(F)c2)nc1Nc1ccc2c(c1)C(S(=O)(=O)C(C)(C)C)CC2 (stereo not shown) [SR5-157, N^4-(3-(tert-Butylsulfonyl)-2,3-dihydro-1H-inden-5-yl)-N^2-(3,5-difluoro-4-(1-methylpiperidin-4-yl)phenyl)-5-methylpyrimidine-2,4-diamine]
- GI50 (UKE1 cells; Table 3, read-out: GI50 (UKE1)): 1500 nM

- BRD4 DSF (ΔTm) (BRD4 [1]): 7.0 °C
- GI50 (MM1.S cells): 2300 nM
Compound: Cc1cnc(Nc2cc(F)c(C3CCN(C)CC3)cn2)nc1Nc1ccc2c(c1)C(S(=O)(=O)C(C)(C)C)CC2 (stereo not shown) [SR5-158, N^4-(3-(tert-Butylsulfonyl)-2,3-dihydro-1H-inden-5-yl)-N^2-(4-fluoro-5-(1-methylpiperidin-4-yl)pyridin-2-yl)-5-methylpyrimidine-2,4-diamine]
- GI50 (UKE1 cells; Table 3, read-out: GI50 (UKE1)): 3640 nM

- BRD4 DSF (ΔTm) (BRD4 [1]): 2.5 °C
Compound: Cc1cnc(Nc2ccc(C3CCN(C)CC3)cc2)cc1Nc1cccc(CS(=O)(=O)C(C)(C)C)c1 [SY3-032, N^4-(3-((tert-Butylsulfonyl)methyl)phenyl)-5-methyl-N^2-(4-(1-methylpiperidin-4-yl)phenyl)pyridine-2,4-diamine]

- BRD4 DSF (ΔTm) (BRD4 [1]): 2.9 °C
Compound: Cc1cnc(Nc2ccc(C3CCN(C)CC3)c(F)c2)cc1Nc1cccc(CS(=O)(=O)C(C)(C)C)c1 [SY3-036, N^4-(3-((tert-Butylsulfonyl)methyl)phenyl)-N^2-(3-fluoro-4-(1-methylpiperidin-4-yl)phenyl)-5-methylpyridine-2,4-diamine]

Compound: Cc1cnc(Nc2ccc(N3CCN(C)CC3)cc2)nc1Nc1cccc(S(=O)(=O)NC(C)(C)C)c1 [TG101209]
- downregulation of c-Myc (c-Myc): strong downregulation

Compound: Cc1cnc(Nc2ccc(OCCN3CCCC3)cc2)nc1Nc1cccc(S(=O)(=O)NC(C)(C)C)c1 [TG101348]
- IC50 (MV4-11 AML cells): 79 nM
- downregulation of c-Myc (c-Myc): strong downregulation
